Test results as given in US11919880B2, “HCV protease inhibitors” (The Regents of the University of California, priority 2020, dated 2024).
Where “and” joins values, the source holds several entries; their conditions need not be identical. Identical values can stand only once. Like-named read-outs stand apart in the source and are kept apart here.

Legend:
proteinase K = proteinase K (Parengyodontium album, UniProt P06873); assay: Counter-screening assay, proteinase K; type: biochemical, fungal; conditions: 13.08 and 14.68, 5.2 μM of 1, 12, and 22, respectively; 40 nM enzyme
proteinase K, sequence (P06873 106-384): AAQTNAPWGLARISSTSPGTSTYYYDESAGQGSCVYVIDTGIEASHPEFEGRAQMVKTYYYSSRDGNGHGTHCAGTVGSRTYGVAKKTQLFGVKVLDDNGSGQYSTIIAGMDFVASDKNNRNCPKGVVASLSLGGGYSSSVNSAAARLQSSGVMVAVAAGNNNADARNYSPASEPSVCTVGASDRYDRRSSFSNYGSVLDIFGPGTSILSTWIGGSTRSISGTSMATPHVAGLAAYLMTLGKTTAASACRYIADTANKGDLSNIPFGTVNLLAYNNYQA
Method: (§1) In addition, we tested these compounds for inhibition against the fungal serine protease, proteinase K that is structurally related to several mammalian serine proteases such as the proprotein convertase enzymes and furin^44.
(§2) Counter-screening assay. Counter-screening assays were performed with 40 nM of bovine trypsin (Sigma), pig pancreatic elastase (Sigma), human chymotrypsin and proteinase k and 60 μM of the appropriate fluorogenic substrates for trypsin, elastase, chymotrypsin, and proteinase K are Boc-Leu-Arg-Arg-AMC (trypsin), Me-Arg-Arg-Pro-Val-AMC (elastase) and Suc-Arg-Arg-Pro-Phe-AMC (chymotrypsin and proteinase K). Assays were performed in 50 mM HEPES pH 7.4, 15 mM NaCl, 0.01% Triton X-100 in black 96-well microplates (BD Falcon) at a final volume of 50 μL. The final concentration of DMSO in each well was 2.5%. Fluorescence was measured as outlined above.

pig pancreatic elastase = biological target: T1, pig pancreatic elastase (Sus scrofa, UniProt P00772); assay: Counter-screening assay, elastase; type: biochemical; conditions: 13.08 and 14.68, 5.2 μM of 1, 12, and 22, respectively; 40 nM enzyme
T1 construct: purchased Sigma
T1 sequence (P00772 27-266): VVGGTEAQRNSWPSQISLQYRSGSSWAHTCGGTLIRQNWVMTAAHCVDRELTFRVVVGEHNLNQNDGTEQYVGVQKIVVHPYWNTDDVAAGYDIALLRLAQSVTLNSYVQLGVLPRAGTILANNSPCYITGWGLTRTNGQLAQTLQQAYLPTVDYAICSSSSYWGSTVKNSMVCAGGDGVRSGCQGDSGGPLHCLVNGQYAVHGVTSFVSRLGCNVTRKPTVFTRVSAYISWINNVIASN
Method: as §1, §2

[1] = system: full-length HCV NS3/4A GT1b D168A; assay: biochemical; type: biochemical, hepatitis C virus; conditions: for IC50—D168A/IC50—wt ratio: D168A mutant versus wt protease
Method: (§3) In order to validate that this group of molecules elicit their cellular effects via inhibition of the viral protease, we incubated compounds 1, 12 and 22 with recombinant NS3/4A protease GT1b and an inhibitor-resistant mutant containing a D168A mutation. D168 is located in the S2 and S4 sub-pockets and mutations in these sub-pockets can cause significant resistance to the inhibitors resulting in decreased activity of peptidomimetic inhibitors^21,37-38. […] As a control, potency was evaluated using the approved HCV protease inhibitor, simeprevir.
(§4) Plasmid construction and purification of HCV NS3/A protein. Drug resistant mutant D168A was generated by mutagenesis using NS3-containing recombinant plasmid (pETDuet-1 Hepatis C Virus NS3/4A, a gift from Michael Johnson, Addgene plasmid #16196) as a template. The single mutation of aspartic acid (D) to alanine (A) was introduced by mutagenesis at position 168 using specific primers (Forward: 5′-[…]-3′ and Reverse: 5′-[…]-3′). The over expression and purification were preformed followed the method that previously described^43. Rosetta 2(DE3) cells (Novagen) containing the modified recombinant plasmid with histidine tag were grown in Lysogeny Broth medium. The over expression was introduced by addition of Isopropyl β-D-1-thiogalactopyranoside (IPTG) to the final concentration of 0.5 mM and the bacteria were incubated at room temperature for 16 h. […] The solution was passed through Ni-NTA column and washed by buffer B (50 mM HEPES, pH 7.6, 500 mM NaCl, 50 mM imidazole, 5 mM β-MCE, 0.2% Triton X-100, and 15% glycerol). The His-tag fused protein was eluted by buffer C (50 mM HEPES, pH 7.6, 500 mM of NaCl, 500 mM of imidazole, 5 mM β-MCE, 0.2% Triton X-100, and 15% glycerol) followed by dialysis using buffer (50 mM HEPES, pH 7.6 and 500 mM of NaCl). Purified NS3/4A protein was concentrated an d buffer exchanged into buffer D (50 mM HEPES, pH 7.6, 500 mM of NaCl, 5 mM β-MCE, 0.2% Triton X-100, and 50% glycerol) using a protein concentrator 10 k (Amicon®).
(§5) HCV NS3/4A enzymatic inhibition assay. The activities of two proteases (recombinant HCV NS3/4A GT1b WT and full-length HCV NS3/4A GT1b D168A) were measured using a fluorogenic substrate, Ac-Glu-Glu-Val-Val-Ala-Cys-AMC (Sigma-Aldrich) where AMC corresponds to 7-amino-4-methylcourmarin. Assays were performed in 50 mM HEPES pH 7.4, 15 mM NaCl, 0.01% Triton X-100, 10 mM DTT in a black 384-well microplate (BD Falcon). […] Fluorescence was monitored at excitation and emission wavelengths of 360 nm and 460 nm in a Synergy™ HTX Multi-Mode Microplate Reader (BioTek). Data was visualized using Gen5™ Software (Biotek). The activity of enzyme was calculated from the change in relative fluorescence units (RFU) over time. For inhibition assays, compounds were pre-incubated with enzyme for 240 minutes prior to adding the enzyme/inhibitor mixture to the substrate. All assays were performed in triplicate wells.

[2] = biological target: T2, full-length HCV NS3/4A GT1b D168A (Hepatitis C virus genotype 1b, UniProt Q9WMX2, D1194A); assay: biochemical; type: biochemical
T2 construct: full-length HCV NS3/4A GT1b D168A; His tag; made in house; host or cells: E. coli Rosetta 2(DE3)
T2 sequence (Q9WMX2 1027-1657, looked up, stated change not applied): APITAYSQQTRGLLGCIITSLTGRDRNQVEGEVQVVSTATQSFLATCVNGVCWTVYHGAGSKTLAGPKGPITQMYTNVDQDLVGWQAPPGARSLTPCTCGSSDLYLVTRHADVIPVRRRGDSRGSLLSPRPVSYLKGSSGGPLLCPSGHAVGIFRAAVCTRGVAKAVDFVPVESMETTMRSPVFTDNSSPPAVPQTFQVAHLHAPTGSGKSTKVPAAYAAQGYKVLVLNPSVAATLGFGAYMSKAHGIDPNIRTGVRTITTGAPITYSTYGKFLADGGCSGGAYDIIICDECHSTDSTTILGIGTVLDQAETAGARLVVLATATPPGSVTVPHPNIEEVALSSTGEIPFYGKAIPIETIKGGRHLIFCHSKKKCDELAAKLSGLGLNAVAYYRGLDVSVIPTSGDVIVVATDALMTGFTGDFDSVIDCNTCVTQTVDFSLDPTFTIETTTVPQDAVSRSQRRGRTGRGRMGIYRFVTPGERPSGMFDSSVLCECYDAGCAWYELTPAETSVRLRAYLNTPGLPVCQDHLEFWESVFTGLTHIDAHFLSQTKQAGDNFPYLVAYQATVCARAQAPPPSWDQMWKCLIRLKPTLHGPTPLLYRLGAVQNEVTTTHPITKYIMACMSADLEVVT
T2 sequence (Q9WMX2 1658-1711, stated change not applied): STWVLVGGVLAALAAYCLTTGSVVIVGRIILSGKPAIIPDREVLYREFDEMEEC
Method: as §3, §4, §5

human chymotrypsin = human chymotrypsin (Homo sapiens, UniProt P17538); assay: Counter-screening assay, chymotrypsin; type: biochemical; conditions: 13.08 and 14.68, 5.2 μM of 1, 12, and 22, respectively; 40 nM enzyme
human chymotrypsin, sequence (P17538 19-263): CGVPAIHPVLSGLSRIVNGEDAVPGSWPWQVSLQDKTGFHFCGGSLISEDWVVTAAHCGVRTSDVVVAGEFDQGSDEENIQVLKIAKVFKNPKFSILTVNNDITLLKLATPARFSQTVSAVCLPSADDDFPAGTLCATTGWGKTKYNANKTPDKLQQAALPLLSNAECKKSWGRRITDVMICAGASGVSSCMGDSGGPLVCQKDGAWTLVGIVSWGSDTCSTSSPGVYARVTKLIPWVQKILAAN
Method: as §1, §2

BM4-5 human liver cells = assay: CellTiter-Blue cell viability assay; type: cell-based; conditions: BM4-5 FEO cells, 48 h, read-out: LC50 ± SD
Method: (§6) The 20 compounds from class C were tested […] for inhibition of viral replication (GT1b wild-type) in BM4-5 FEO cells and for mammalian cell cytotoxicity. The numbers of virus particles were evaluated by quantifying luciferase produced during the virus life cycle^41 while toxicity was evaluated using a cell viability assay. […] Prior to additional biochemical studies, several key chemical properties for each of the Class C molecules were determined. Calculated polar surface area (PSA), lipophilicity (LogP), and molecular weight for each compound (Table IA) complied with the general criteria for drug-like molecules.
(§7) Luciferase antiviral efficacy and cells viability assays. BM4-5 FEO replicon approximately 10,000 cells in 100 μL of medium were seeded into 96-well plates and incubate for 6 h for attachment. Then, the compounds were added at to the wells in specific concentration and incubate for 48 h. The luciferase assay (Bright-Glo; Promega) was carried out according to the manufacturer's instructions. Luciferase activity was determined using a microplate luminometer (Veritas microplate luminometer; Turner Biosystems). For cells viability assays, BM4-5 FEO at the density 10,000 cells in 100 μL medium was incubated at 37° C. for 6 h for attachment, then the compounds were added and incubated for another 48 hours. The number of living cells were measured by Cell Titer-blue assay (Promega). The fluorescence absorption (560Ex/590Em) for 96-well plate was read by Benchmark Scientific MR9600 with. The activity and toxicity of each compound were measured by at least six different concentrations in triplicate.

[3] = Potentiometric titration, Sirius T3 instrument; type: physicochemical
From the text: As highlighted in Scheme 1, the tryptophan derived HCV NS3/4 protease inhibitors, 21 and 22, were synthesized starting from 3-(piperidine-1-yl)propan-1-amine (23), which could be accessed in two steps from commercially available N-(bromopropyl)phthalimide and piperidine, and N-Boc protected L-tryptophan (24). Thus, HBTU mediated coupling of […] and 24, followed by N-Boc deprotection and carbamoylation reaction with the appropriate isocyanate provided the desired compounds. 21 and 22. These test compounds were characterized by ^1H-NMR, ^13C-NMR, and HRMS. In addition, experimental pKa values, lipophilicity (LogP), and LogD7.4 of 22 were determined via potentiometric titrations using a Sirius T3 instrument. Compounds 21 and 22, as well as the 20 compounds from the primary screen, were then tested in cell-based assays to evaluate activity against HCV and toxicity to the host cells (Table 2).

[4] = biological target: T3, recombinant HCV NS3/4A GT1b WT (Hepatitis C virus genotype 1b, UniProt Q9WMX2); assay: biochemical; type: biochemical
T3 construct: recombinant HCV NS3/4A GT1b WT
T3 sequence (Q9WMX2 1658-1711): as the sequence (Q9WMX2 1658-1711, stated change not applied) above
T3 sequence (Q9WMX2 1027-1657): as the sequence (Q9WMX2 1027-1657, looked up, stated change not applied) above
Method: as §3, §5

[5] = system: sub-genomic HCV GT1b replicon (BM4-5 FEO), GT1b WT; assay: HCV replicon assay (luciferase antiviral efficacy); type: cell-based, hepatitis C virus; conditions: BM4-5 FEO cells, 48 h, read-out: EC50 ± SD Gt 1b wt
Method: as §6, with “determined.” for “determined. Calculated polar surface area (PSA), lipophilicity (LogP), and molecular weight for each compound (Table IA) complied with the general criteria for drug-like molecules.”
Replicon construct. The BM4-5 replicon is a sub-genomic HCV GT1b replicon that contains adaptive mutation of serine in the NS5A region^41. The firefly luciferase gene was added into the BM4-5 replicon to generate BM4-5 FEO replicon. The construction procedures have been previously described^42.
as §7

bovine trypsin = biological target: T4, bovine trypsin (Bos taurus, UniProt P00760); assay: Counter-screening assay, trypsin; type: biochemical; conditions: 13.08 and 14.68, 5.2 μM of 1, 12, and 22, respectively; 40 nM enzyme
T4 construct: purchased Sigma
T4 sequence (P00760 24-246): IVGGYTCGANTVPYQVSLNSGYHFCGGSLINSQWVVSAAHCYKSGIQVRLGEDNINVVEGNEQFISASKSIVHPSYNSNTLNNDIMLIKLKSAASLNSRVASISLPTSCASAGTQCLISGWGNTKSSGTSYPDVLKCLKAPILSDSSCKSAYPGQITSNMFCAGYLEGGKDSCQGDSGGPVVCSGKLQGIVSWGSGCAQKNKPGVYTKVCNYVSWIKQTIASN
Method: as §1, §2

[6] = 40 nM enzyme, 60 μM Ac-Glu-Glu-Val-Val-Ala-Cys-AMC, 240 min pre-incubation, read-out: IC50 GT1b D168A
[7] = 40 nM enzyme, 60 μM Ac-Glu-Glu-Val-Val-Ala-Cys-AMC, 240 min pre-incubation, read-out: IC50 GT1b WT

SMILES	CC50 (BM4-5 human liver cells) [µM]	EC50 [5] [µM]	further results
CC(C)c1ccc(NC(=O)N[C@@H](Cc2c[nH]c3ccccc23)C(=O)NCCCN2CCCCC2)cc1 [Compound 22]	47 ± 6.98	0.64 ± 0.13	Decrease of proteinase K activity (proteinase K): did not decrease activity; Decrease of elastase activity (pig pancreatic elastase): did not decrease activity; IC50—D168A/IC50—wt ratio [1]: 1.4; Change in potency, D168A mutant versus wt protease ([1]; result in words): no significant reduction on potency; IC50 [2, 6]: 5.98 ± 0.43 µM; Decrease of chymotrypsin activity (human chymotrypsin): did not decrease activity; Experiment value of logP [3]: 4.1; IC50 [4, 7]: 5.2 µM and 4.6 µM; Potency lower than simeprevir ([4]; wt protease IC50 compared with simeprevir): 120 fold; Decrease of trypsin activity (bovine trypsin): did not decrease activity
CC1CCCCN1CCCNC(=O)C(Cc1c[nH]c2ccccc12)NC(=O)Nc1c(F)cc(Br)cc1F (centres unmarked) [Compound 13]		35.4 ± 7.71	
COc1ccc2c(O[C@@H]3C[C@H]4C(=O)N[C@]5(C(=O)NS(=O)(=O)C6CC6)C[C@H]5/C=C\CCCCN(C)C(=O)[C@@H]4C3)cc(-c3nc(C(C)C)cs3)nc2c1C [Simeprevir, reference compound]			IC50—D168A/IC50—wt ratio [1]: 5.7; IC50 [2, 6]: 0.247 ± 0.39 µM; IC50 [4, 7]: 0.043 µM
COc1ccc2[nH]cc(CC(NC(=O)Nc3cc(Cl)ccc3Cl)C(=O)NCCCN3CCCCC3C)c2c1 (centres unmarked) [Compound 10]	> 100	33.2 ± 3.17	
Cc1ccc2[nH]cc(CC(NC(=O)Nc3cc(Cl)ccc3Cl)C(=O)NCCCN3CCCCC3C)c2c1 (centres unmarked) [Compound 7]		6.35 ± 1.11	
C[C@H]1CCCCN1CCCNC(=O)C(Cc1c[nH]c2ccccc12)NC(=O)Nc1cccc(Br)c1 (some centres unmarked) [Compound 1]			IC50 [2]: 11.4 ± 0.45 µM; IC50 [4]: 14.7 ± 1.23 µM; EC50 ([5]; Hepatitis C virus, GT1B): 0.95 ± 0.26 µM
CC1CCCCN1CCCNC(=O)C(Cc1c[nH]c2ccc(F)cc12)NC(=O)Nc1cc(Cl)ccc1Cl (centres unmarked) [Compound 2]		6.12 ± 2.3	
CCOC(=O)C1CCCCN1CCCNC(=O)C(Cc1c[nH]c2ccccc12)NC(=O)Nc1ccccc1Br (centres unmarked) [Compound 17]		2.98 ± 1.08	
O=C(Nc1ccccc1Br)NC(Cc1c[nH]c2ccccc12)C(=O)NCCCNC1CCC(O)CC1 (centres unmarked) [Compound 19]	> 100	32.6 ± 14.8	
O=C(Nc1ccccc1Br)NC(Cc1c[nH]c2ccccc12)C(=O)NCCCNC1CC2CCC1C2 (centres unmarked) [Compound 11]		5.99 ± 2.61	
COc1ccc(OC)c(NC(=O)NC(Cc2c[nH]c3ccccc23)C(=O)NCCCN2CCCCC2C)c1 (centres unmarked) [Compound 9]	> 100	51.4 ± 15.2	
CC1CCCCN1CCCNC(=O)C(Cc1c[nH]c2ccccc12)NC(=O)Nc1ccc(N(C)C)cc1 (centres unmarked) [Compound 6]	> 100	63.4 ± 11	
CC1CCCC(C)N1NCCCNC(=O)C(Cc1c[nH]c2ccccc12)NC(=O)Nc1ccccc1Br (centres unmarked) [Compound 14]		5.15 ± 0.63	
O=C(Nc1cccc(Br)c1)N[C@@H](Cc1c[nH]c2ccccc12)C(=O)NCCCN1CCCCC1 [Compound 21]	29.5 ± 1.48	1.3 ± 1.25	
O=C(Nc1cccc(Br)c1)NC(Cc1c[nH]c2ccccc12)C(=O)NCCCNC1CCCCCC1 (centres unmarked) [Compound 15]		6.82 ± 0.74	
CC(C)c1ccc(NC(=O)NC(Cc2c[nH]c3ccccc23)C(=O)NCCCN2CCCC[C@@H]2C)cc1 (some centres unmarked) [Compound 12]			IC50 [2]: 11.5 ± 0.55 µM; IC50 [4]: 13.1 ± 2.77 µM; EC50 ([5]; Hepatitis C virus, GT1B): 1.5 ± 0.07 µM
CC(=O)c1cccc(NC(=O)NC(Cc2c[nH]c3ccccc23)C(=O)NCCCN2CCCCC2C)c1 (centres unmarked) [Compound 8]	> 100	10.9 ± 4.93	
O=C(Nc1ccccc1Br)NC(Cc1c[nH]c2ccccc12)C(=O)NCCCNC1CCCCC1O (centres unmarked) [Compound 18]		4.58 ± 0.32	
